Measured values as given in US12344599B2, “Prodigiosin analogs and methods of use” (Institute For Cancer Research, priority 2016, dated 2025).
pIC50: −log10 of the molar value.

Key:
U251 = assay: CellTiterGlo cell viability assay, U251; format: cell-based; settings: Homo sapiens, U-251; U251, glioblastoma multiforme, p53 R273H, 72 hours
Procedure: (§1) • 1) Cell lines: HT29, SW480, DLD-1, HCT116, and p53-null HCT116 cells, H1975, MDA-MD-231, U251, FaDu, CAL-27, PANC-1, Aspc-1, and MRC5 were obtained from the ATCC and cultured as recommended. Cells were regularly authenticated by bioluminescence, growth, and morphologic observation. The cells were routinely examined for Mycoplasma and all cell lines underwent STR authentication. • 2) Western blotting: After treatment, protein lysates were collected for Western blot analysis. 15 μg of protein was used for SDS-PAGE. After primary and secondary antibody incubations, the signal was detected by chemiluminescent detection kit, imaged by Syngene (Imgen Technologies). […] The cell viability was assessed by CellTiterGlo bioluminescent cell proliferation assay (Promega), following the manufacturer's protocol. Bioluminescence imaging was measured using the IVIS imager. Percentage of cell viability (mean±SEM) at each dose was calculated against the respective DMSO control. The IC50 values were determined from the sigmoidal dose-response curves using GraphPad Prims4. • 4) Caspase activity assay: Cells were seeded in 96-well plate (1×10^4 cells/well). […] The caspase 3/7 activity was assessed by Caspase-Glo® 3/7 Assay kit (Promega), following the manufacturer's protocol. Bioluminescence imaging was measured using the IVIS imager. […]

HT29 cells [1] = assay: Western blot of apoptosis markers and PUMA, HT29; format: cell-based, human
Procedure: as §1

HCT116 p53−/− = assay: CellTiterGlo cell viability assay, HCT116 p53−/−; format: cell-based; settings: Homo sapiens, HCT-116, colorectal cancer, p53 null, 72 hours
Procedure: as §1

PANC-1 = assay: CellTiterGlo cell viability assay, PANC-1; format: cell-based; settings: Homo sapiens; PANC-1, pancreatic cancer, p53 R273H, 72 hours
Procedure: as §1

[2] = tested on: ATF4 and CHOP in DLD1 cells; assay: Western blot of ATF4 and CHOP, DLD1; format: cell-based, human
Procedure: as §1

HT29 cells [3] = assay: Flow cytometry sub-G1 (PI staining) analysis; format: cell-based, human; settings: for sub-G1 populations: HT29, co-treatment with PG3-Oc and TRAIL; for sub-G1 population: 1 μM PG3-Oc for 48 hours
Procedure: • 1) Cell lines: HT29, SW480, DLD-1, HCT116, and p53-null HCT116 cells, H1975, MDA-MD-231, U251, FaDu, CAL-27, PANC-1, Aspc-1, and MRC5 were obtained from the ATCC and cultured as recommended. Cells were regularly authenticated by bioluminescence, growth, and morphologic observation. The cells were routinely examined for Mycoplasma and all cell lines underwent STR authentication. • 2) Western blotting: After treatment, protein lysates were collected for Western blot analysis. 15 μg of protein was used for SDS-PAGE. After primary and secondary antibody incubations, the signal was detected by chemiluminescent detection kit, imaged by Syngene (Imgen Technologies). Antibodies for Puma, FLIPL/S and p53 (Santa Cruz Biotechnology), cleaved caspase 8, caspase 9, caspase 3, cleavage PARP, eIF2α, p-eIF2α(Ser51), CHOP, ATF4, DR5, FOXO3a, p-FOXO3a(Ser253), NF-κB p65, p-NF-κB p65(Ser536), c-Jun, p-c-Jun(Ser63), JNK, p-JNK(Thr183/Tyr185) (Cell Signaling Technology), Noxa, p21 (Calbiochem), p73 (Bethyl laboratories Inc), Ran (BD Biosciences), […] (Sigma). • 3) Cell viability assay: Cells were seeded in 96-well plate (6×10^3 cells/well). Cells were treated with different concentrations of compounds or dimethyl sulfoxide (DMSO) control for 72 hours. The cell viability was assessed by CellTiterGlo bioluminescent cell proliferation assay (Promega), following the manufacturer's protocol. Bioluminescence imaging was measured using the IVIS imager. Percentage of cell viability (mean±SEM) at each dose was calculated against the respective DMSO control. The IC50 values were determined from the sigmoidal dose-response curves using GraphPad Prims4. • 4) Caspase activity assay: Cells were seeded in 96-well plate (1×10^4 cells/well). Cells were treated with different concentrations of compounds or DMSO control for 24 hours. The caspase 3/7 activity was assessed by Caspase-Glo® 3/7 Assay kit (Promega), following the manufacturer's protocol. Bioluminescence imaging was measured using the IVIS imager. Caspase activity was normalized to cell numbers and compared to those of DMSO treatment as control in each cell line. Data is reported as mean RLU+SEM (n=3). • 5) Colony formation assays: Five hundred cells were seeded per well on 6-well plates and treated with different concentrations of compounds for 24 hours, then, cells were cultured with drug-free complete medium for 2 weeks with fresh medium changed every 7 days. Cells were fixed with 10% formalin and stained with 0.05% crystal violet at the end of 2 weeks period of cell culture. • 6) Flow cytometry assay: • a) Cell Cycle Analysis: Propidium iodide (PI) staining and flow cytometry were used to determine the degree of cellular apoptosis. Cells were seeded at 3×10^5 cells/well in six-well plates. Cells were treated with PG3-Oc for 48 hours. Cells were harvested, fixed by 70% ethanol, and stained by propidium iodide, then flow cytometry was performed as previously described (Smithen et al., Org. Biomol. Chem., 2013, 11, 62-68). The percentage of hypodiploid cells (sub-G1) was used to quantify dead cells in apoptosis assays. • b) Early apoptosis detection: Cells were seeded at 3×10^5 cells/well in six-well plates. Cells were treated with PG3-Oc for 48 hours. […]

ASPC-1 = assay: CellTiterGlo cell viability assay, ASPC-1; format: cell-based; settings: Homo sapiens, ASPC1; ASPC-1, pancreatic cancer, p53 frameshift, 72 hours
Procedure: as §1

c-Myc and PUMA = assay: Western blot of c-Myc, PUMA and p53 target genes; format: cell-based, human; settings: colorectal cancer cell lines and Jurkat cells
Procedure: After treatment, protein lysates were collected for Western blot analysis. A total of […] of protein was used for SDS-PAGE. After primary and secondary antibody incubations, the signal was detected by a chemiluminescence detection kit, imaged by Syngene (Imgen Technologies). Antibodies for PUMA (for IHC), p53 (Santa Cruz Biotechnology), caspase 8, cleaved caspase 8, caspase 9, caspase 3, cleavage PARP, eIF2α, p-eIF2α (Ser51), CHOP, ATF4, DR5, FOXO3a, p-FOXO3a (Ser253), NF-κB p65, p-NF-κB p65 (Ser536), c-Jun, p-c-Jun (Ser63), JNK, p-JNK (Thr183/Tyr185), PUMA (for WB), c-Myc, phosphor-S62-cMyc (Cell Signaling Technology), Noxa, p21 (Calbiochem), p73 (Bethyl laboratories Inc), Ran (BD Biosciences), […] (Sigma).
To test this hypothesis, two ERK1/2 inhibitors that act by different mechanisms were used. U0126 is an indirect ERK1/2 inhibitor. It inhibits MEK1 kinase and blocks the phosphorylation of ERK1/2. […] Consistent with a previous publication (Choi et al., Genes Dev, 2010, 24, 1236-1241), SCH772984 can inhibit ERK1/2 function after ERK1/2 is phosphorylated (FIG. 73), and the same is observed for PG3-Oc (FIG. 73).

FaDu = assay: CellTiterGlo cell viability assay, FaDu; format: cell-based; settings: Homo sapiens, head & neck squamous cell carcinoma, p53 R248L, 72 hours
Procedure: as §1

SW480 = assay: CellTiterGlo cell viability assay, SW480; format: cell-based; settings: Homo sapiens; SW480, colorectal cancer, p53 R273, P309S, 72 hours
Procedure: as §1

CCCCCCCCOC(=O)CCc1c(C)[nH]c(/C=C2\N=C(c3ccc[nH]3)C=C2OC)c1C [PG3-Oc, Octyl (Z)-3-(5-((4′-methoxy-1H,5′H-[2,2′-bipyrrol]-5′-ylidene)methyl)-2,4-dimethyl-1H-pyrrol-3-yl)propanoate]
pIC50 (U251): 7.00
time at which PUMA protein was first induced post treatment (HT29 cells [1]; HT29, time-course): 16 h
concentration sufficient to activate cleaved caspase-8 and -3 and cleaved-PARP (HT29 cells [1]; western blot): 0.5 µM
pIC50 (HCT116 p53−/−): 7.39
pIC50 (PANC-1): 6.87
concentration at which induction of ATF4 and CHOP occurred [2]: 5 µM
sub-G1 populations (HT29 cells [3]; siRNA knockdown of DR5): 29.5%
sub-G1 populations (HT29 cells [3]; without DR5 knockdown): 72.9%
sub-G1 population (HT29 cells [3]; HT29, knockdown of PUMA by siRNA): 11.1%
sub-G1 population (HT29 cells [3]; HT29, siControl): 25.8%
pIC50 (ASPC-1): 7.41
effect on c-Myc (c-Myc and PUMA): potently downregulated c-Myc
pIC50 (FaDu): 7.18
pIC50 (SW480): 7.02
